Values of other authors, collected in patent publication US20190367426A1, “LIQUID UREASE INHIBITOR FORMULATIONS” (YARA INTERNATIONAL ASA, priority 2017, published 2019).

System: rat

## CCCCOCCOCCO [DEGMBE, Diethylene glycol monobutyl ether]
  toxicity oral rat LD50: 5660 mg/kg

## COCCOCCO [DEGMME, Diethylene glycol monomethyl ether]
  toxicity oral rat LD50: 6450 mg/kg
